Source: ChEMBL document CHEMBL3739370, “Synthesis and evaluation of amide, sulfonamide and urea benzisoxazole derivatives as potential atypical antipsychotics” (Medchemcomm, 2015)

How the values were obtained:
Histamine H1 receptor = Histamine H1 receptor (Cavia porcellus, UniProt P31389); assay: Displacement of [3H]mepyramine from histamine H1 receptor in guinea pig cerebellum
[1] = biological target: 5-hydroxytryptamine receptor 2A (Rattus norvegicus, UniProt P14842); assay: Displacement of [3H]ketanserin from 5HT2A receptor in rat brain cortex; type: tissue-based
[2] = biological target: T1, Adrenergic receptor alpha-1 (Rattus norvegicus, UniProt P15823+P23944+P43140); assay: Displacement of [3H]prazosin from adrenergic alpha1 receptor in rat brain cortex; type: tissue-based
T1 sequence (P15823 whole entry): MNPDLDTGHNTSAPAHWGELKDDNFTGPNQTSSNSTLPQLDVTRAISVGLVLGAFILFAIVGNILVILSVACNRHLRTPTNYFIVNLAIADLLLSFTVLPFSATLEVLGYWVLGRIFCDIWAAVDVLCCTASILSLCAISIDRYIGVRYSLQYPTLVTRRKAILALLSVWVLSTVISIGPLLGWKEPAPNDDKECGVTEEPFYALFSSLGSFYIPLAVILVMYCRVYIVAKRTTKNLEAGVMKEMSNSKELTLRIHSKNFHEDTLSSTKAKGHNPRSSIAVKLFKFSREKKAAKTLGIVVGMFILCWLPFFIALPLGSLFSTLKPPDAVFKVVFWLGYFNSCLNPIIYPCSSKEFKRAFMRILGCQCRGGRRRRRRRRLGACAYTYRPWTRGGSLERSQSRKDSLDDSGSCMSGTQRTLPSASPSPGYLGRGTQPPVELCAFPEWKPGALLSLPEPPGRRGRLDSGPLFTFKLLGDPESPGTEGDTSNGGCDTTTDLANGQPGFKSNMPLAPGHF
T1 sequence (P23944 whole entry): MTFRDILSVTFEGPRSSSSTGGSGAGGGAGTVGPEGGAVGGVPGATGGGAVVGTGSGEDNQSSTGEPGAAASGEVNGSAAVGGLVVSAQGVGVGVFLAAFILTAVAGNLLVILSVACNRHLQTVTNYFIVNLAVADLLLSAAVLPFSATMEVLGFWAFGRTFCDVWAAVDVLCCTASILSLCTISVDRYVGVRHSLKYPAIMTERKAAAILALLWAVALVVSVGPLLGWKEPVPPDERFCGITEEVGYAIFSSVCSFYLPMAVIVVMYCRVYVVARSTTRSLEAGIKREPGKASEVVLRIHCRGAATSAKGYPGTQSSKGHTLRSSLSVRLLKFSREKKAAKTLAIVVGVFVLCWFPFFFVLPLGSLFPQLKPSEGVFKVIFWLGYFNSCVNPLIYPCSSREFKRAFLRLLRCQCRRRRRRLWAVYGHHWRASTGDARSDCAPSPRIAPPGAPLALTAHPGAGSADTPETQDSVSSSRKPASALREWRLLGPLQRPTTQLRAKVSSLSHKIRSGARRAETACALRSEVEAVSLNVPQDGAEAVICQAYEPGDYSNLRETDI
T1 sequence (P43140 whole entry): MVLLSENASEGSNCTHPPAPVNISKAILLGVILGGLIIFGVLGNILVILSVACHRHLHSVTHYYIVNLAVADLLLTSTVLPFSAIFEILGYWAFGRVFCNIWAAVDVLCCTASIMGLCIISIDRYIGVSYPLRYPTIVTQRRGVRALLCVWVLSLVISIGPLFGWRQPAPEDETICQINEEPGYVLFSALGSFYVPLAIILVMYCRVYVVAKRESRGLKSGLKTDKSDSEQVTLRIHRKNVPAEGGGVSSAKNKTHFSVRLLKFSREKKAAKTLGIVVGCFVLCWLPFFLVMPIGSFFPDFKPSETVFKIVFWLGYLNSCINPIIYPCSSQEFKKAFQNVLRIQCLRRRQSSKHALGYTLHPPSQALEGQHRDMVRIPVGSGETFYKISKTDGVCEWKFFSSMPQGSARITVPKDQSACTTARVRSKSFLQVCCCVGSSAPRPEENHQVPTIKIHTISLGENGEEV

[3] = biological target: T2, 5-hydroxytryptamine receptor 2C (Rattus norvegicus, UniProt P08909); assay: Displacement of [3H]mesulergine from 5HT2C receptor in rat brain cortex; type: tissue-based
T2 sequence (P08909 whole entry): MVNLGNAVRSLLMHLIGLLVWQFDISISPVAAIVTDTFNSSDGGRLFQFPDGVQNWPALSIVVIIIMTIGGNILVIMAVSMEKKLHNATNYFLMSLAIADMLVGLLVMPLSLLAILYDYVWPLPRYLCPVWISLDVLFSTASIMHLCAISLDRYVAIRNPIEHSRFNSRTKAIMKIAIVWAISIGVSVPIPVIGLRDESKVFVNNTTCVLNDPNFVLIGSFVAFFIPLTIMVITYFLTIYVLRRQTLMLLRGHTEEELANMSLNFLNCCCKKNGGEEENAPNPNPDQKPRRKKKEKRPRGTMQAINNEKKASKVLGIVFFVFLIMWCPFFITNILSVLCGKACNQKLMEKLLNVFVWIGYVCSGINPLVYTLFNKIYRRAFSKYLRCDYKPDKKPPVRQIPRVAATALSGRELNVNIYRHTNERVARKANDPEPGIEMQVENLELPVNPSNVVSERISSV

[4] = biological target: Voltage-gated inwardly rectifying potassium channel KCNH2 (Homo sapiens, UniProt Q12809); assay: Inhibition of human ERG
D(2) dopamine receptor = D(2) dopamine receptor (Rattus norvegicus, UniProt P61169); assay: Displacement of [3H]spiperone from dopamine D2 receptor in rat striatum
Mus musculus [5] = assay: Antipsychotic activity in po dosed mouse assessed as reversal of DOI-induced head twitch activity; type: functional
Mus musculus [6] = assay: Selectivity ratio of ED50 for po dosed mouse assessed as catalepsy to ED50 for po dosed mouse assessed as reversal of apomorphine-induced climbing activity
Mus musculus [7] = assay: Antipsychotic activity in po dosed mouse assessed as reversal of apomorphine-induced climbing activity; type: functional
Mus musculus [8] = assay: Selectivity ratio of ED50 for po dosed mouse assessed as catalepsy to ED50 for po dosed mouse assessed as reversal of MK-801-induced hyperactivity
[9] = biological target: D(2) dopamine receptor (Homo sapiens) (UniProt P14416); assay: Antagonist activity at dopamine D2 receptor (unknown origin) at 10 uM
Mus musculus [10] = assay: Toxicity in po dosed mouse assessed as catalepsy; type: organism-based; settings: in vivo
[11] = biological target: D(2) dopamine receptor (Homo sapiens) (UniProt P14416); assay: Agonist activity at dopamine D2 receptor (unknown origin) at 10 uM relative to dopamine
[12] = biological target: 5-hydroxytryptamine receptor 2A (Homo sapiens) (UniProt P28223); assay: Agonist activity at […] receptor (unknown origin) at 10 uM relative to 5-HT
5-hydroxytryptamine receptor 2A (Homo sapiens), sequence (P28223 whole entry): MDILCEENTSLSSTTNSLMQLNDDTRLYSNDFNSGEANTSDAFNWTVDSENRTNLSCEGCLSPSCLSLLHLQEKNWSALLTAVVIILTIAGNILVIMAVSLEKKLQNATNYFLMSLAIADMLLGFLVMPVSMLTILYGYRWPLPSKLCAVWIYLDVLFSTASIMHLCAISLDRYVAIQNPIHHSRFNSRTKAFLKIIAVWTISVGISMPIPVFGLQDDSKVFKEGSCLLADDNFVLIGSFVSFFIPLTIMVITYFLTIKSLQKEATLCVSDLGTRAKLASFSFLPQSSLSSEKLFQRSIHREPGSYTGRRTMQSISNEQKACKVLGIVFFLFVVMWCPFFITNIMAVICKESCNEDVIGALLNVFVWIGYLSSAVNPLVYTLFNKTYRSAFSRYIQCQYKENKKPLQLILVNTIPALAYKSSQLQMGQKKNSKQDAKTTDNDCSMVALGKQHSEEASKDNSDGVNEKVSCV

D(2) dopamine receptor, sequence (P61169 whole entry): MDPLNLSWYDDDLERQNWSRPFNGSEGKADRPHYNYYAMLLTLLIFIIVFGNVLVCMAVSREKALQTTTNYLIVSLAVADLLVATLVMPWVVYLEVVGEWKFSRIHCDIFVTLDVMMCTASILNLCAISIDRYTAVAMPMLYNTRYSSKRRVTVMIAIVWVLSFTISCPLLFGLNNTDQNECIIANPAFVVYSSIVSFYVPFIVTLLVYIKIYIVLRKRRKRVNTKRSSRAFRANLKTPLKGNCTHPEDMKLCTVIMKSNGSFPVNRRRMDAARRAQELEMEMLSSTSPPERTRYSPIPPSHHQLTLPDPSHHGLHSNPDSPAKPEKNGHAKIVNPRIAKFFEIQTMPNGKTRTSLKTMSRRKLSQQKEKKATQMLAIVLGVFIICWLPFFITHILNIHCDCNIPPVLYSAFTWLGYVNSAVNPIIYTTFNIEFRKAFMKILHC
D(2) dopamine receptor (Homo sapiens), sequence (P14416 whole entry): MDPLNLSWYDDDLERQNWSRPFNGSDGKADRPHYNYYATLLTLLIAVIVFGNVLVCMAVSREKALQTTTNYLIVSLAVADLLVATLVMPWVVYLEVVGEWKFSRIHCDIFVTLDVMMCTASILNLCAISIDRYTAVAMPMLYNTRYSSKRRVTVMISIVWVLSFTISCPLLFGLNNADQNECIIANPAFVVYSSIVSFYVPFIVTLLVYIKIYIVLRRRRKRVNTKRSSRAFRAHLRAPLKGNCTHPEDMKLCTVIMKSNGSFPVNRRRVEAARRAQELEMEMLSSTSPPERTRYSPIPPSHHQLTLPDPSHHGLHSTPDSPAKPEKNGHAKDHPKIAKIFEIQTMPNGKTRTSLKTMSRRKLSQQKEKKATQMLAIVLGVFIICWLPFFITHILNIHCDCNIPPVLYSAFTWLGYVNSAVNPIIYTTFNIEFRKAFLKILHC
5-hydroxytryptamine receptor 2A, sequence (P14842 whole entry): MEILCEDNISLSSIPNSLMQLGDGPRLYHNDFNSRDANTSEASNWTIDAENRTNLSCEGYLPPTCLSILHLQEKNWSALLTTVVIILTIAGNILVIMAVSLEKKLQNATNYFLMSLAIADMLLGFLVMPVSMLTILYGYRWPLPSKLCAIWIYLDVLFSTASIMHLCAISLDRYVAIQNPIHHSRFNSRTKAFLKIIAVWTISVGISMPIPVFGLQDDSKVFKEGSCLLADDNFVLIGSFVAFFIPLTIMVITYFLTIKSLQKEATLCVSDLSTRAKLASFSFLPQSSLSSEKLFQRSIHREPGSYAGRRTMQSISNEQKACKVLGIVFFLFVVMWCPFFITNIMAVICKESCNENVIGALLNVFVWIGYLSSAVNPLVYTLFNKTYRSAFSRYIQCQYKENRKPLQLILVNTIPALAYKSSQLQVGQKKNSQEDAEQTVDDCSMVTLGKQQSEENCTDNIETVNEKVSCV
Histamine H1 receptor, sequence (P31389 whole entry): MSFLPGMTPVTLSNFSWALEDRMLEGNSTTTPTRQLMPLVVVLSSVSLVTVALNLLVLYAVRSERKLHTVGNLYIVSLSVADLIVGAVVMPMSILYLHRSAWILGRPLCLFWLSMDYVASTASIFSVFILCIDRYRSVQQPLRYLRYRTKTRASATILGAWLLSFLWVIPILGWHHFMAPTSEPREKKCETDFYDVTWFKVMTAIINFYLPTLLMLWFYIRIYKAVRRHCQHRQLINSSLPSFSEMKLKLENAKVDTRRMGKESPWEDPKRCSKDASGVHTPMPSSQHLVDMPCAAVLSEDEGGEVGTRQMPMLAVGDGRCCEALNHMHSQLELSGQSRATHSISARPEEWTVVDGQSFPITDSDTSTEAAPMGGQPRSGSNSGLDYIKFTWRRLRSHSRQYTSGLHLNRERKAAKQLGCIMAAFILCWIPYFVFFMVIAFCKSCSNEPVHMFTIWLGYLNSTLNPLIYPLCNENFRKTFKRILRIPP
Voltage-gated inwardly rectifying potassium channel KCNH2, sequence (Q12809 whole entry): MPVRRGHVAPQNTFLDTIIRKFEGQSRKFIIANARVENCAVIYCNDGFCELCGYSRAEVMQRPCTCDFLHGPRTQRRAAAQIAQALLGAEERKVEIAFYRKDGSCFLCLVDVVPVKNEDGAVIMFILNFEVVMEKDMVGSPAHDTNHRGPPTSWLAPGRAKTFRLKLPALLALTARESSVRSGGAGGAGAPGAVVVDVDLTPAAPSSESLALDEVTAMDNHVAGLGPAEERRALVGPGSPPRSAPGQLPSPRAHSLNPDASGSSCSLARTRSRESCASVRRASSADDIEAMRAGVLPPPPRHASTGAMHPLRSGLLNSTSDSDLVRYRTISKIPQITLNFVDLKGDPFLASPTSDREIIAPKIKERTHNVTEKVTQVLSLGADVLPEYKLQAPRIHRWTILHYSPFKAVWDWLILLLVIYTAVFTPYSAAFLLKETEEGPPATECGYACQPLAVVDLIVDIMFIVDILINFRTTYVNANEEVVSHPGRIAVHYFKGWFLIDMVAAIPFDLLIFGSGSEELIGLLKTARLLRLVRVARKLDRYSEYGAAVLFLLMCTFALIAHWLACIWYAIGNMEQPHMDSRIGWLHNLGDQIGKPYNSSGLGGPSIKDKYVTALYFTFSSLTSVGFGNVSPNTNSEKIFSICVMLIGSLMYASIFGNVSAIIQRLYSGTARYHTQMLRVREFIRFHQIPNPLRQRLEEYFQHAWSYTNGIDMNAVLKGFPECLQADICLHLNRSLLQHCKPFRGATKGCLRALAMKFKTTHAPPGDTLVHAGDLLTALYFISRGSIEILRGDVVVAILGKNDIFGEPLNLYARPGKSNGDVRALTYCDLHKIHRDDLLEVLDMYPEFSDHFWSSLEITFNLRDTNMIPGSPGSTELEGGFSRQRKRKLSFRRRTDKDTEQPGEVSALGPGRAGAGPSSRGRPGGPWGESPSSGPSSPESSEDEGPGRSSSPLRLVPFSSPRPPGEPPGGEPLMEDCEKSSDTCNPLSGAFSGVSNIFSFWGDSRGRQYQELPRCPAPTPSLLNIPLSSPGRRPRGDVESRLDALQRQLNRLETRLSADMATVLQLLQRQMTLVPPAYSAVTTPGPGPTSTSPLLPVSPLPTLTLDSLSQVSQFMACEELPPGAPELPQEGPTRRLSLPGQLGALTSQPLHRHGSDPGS

SMILES | Ki (Histamine H1 receptor) | Ki [1] | Ki [2] | Ki [3] | IC50 [4] | Ki (D(2) dopamine receptor) | ED50 (Mus musculus [5]) | Ratio ED50 (Mus musculus [6]) | ED50 (Mus musculus [7]) | Ratio ED50 (Mus musculus [8]) | inhibition [9] | ED50 (Mus musculus [10]) | Activity [11] | Activity [12]
O=S(=O)(c1ccc(C(F)(F)F)cc1)N1CCC(CN2CCC(c3noc4cc(F)ccc34)CC2)CC1 | 43.6 nM | 15.7 nM | 1098.2 nM | 137 nM | 1390 nM | 32.6 nM | – | – | – | – | – | – | – | –
O=[N+]([O-])c1ccc(S(=O)(=O)N2CCC(CN3CCC(c4noc5cc(F)ccc45)CC3)CC2)cc1 | 2850 nM | 0.79 nM | 2356.2 nM | 998 nM | 3810 nM | 8.7 nM | 0.57 mg/kg | 108.8 | 0.4 mg/kg | 61.3 | 100% | 43.53 mg/kg | 5.9% | 6.8%
